Experimental findings from US20260374750A1, “LIGANDS SPECIFICALLY TARGETING VESICULAR GLUTAMATE TRANSPORTERS FOR SUPER-RESOLUTION IMAGING” (SORBONNE UNIVERSITÉ, priority 2021, published 2026) are described below.

In the experiment the test system is VGLUTs (GLU vesicular transport). Kind of experiment: Vesicular glutamate reuptake test ([3H]-glutamate, synaptic vesicles). Format: biochemical, rat. The settings on record: for EC50: vesicular glutamate transport; for potency in words (EC50): based on EC50. As to the method: The EC50 was also determined for several of the compounds of the invention.
The vesicular glutamate reuptake was tested as previously described (Kish and Ueda, 1989; Naito and Ueda, 1985; Pietrancosta et al., 2010) with minor modifications. Aliquots of synaptic vesicles […] (obtained by differential centrifugation of rat cortex) were diluted in a solution containing 4 mM HEPES-KOH, pH 7.4 and 0.32M sucrose. The tested compounds were dissolved in 1% ethanol, 1% DMSO (pH was adjusted to 7.4 with 5% KOH) to initial concentrations comprised between 2 mM and 200 μM. The compounds were then diluted to desired final concentrations in a solution containing 10 mM HEPES-KOH, pH 7.4, 0.32 M sucrose, 4 mM KCl, 4 mM MgSO4 (named TPU). The tested compounds were pre-incubated in a solution containing 3 mM ATP-Mg, 1 mM L-aspartic acid, 100 μM glutamate and 0.4 mM […] and 0.4 μM [3H]-Glutamate (1.547 TBq/mmol). After 4 min at 37 °C, the reuptake reaction was initiated by the addition of rat synaptic vesicles. This mixture was incubated for 10 min at 37 °C before adding ice-cold TPU (3.5 mL) and rapidly filtering it through a membrane filter ([…], Millipore MF reference HAWP02500) using a vacuum collector. The filters were washed five times with 3.5 mL of cold TPU and placed in scintillation vials with a scintillation cocktail (optiphase hisafe 3, reference 1200-437, Perkin Elmer). The radioactivity related to the filters was measured in a Beckman LS 6500 scintillation spectrophotometer. The values obtained in the absence of ATP-Mg or in the presence of Carbonyl [COMPOUND LEFT OUT] 3-chlorophenylhydrazone (CCCP, 50 μM reference Sigma C2759) were used to determine the non-specific activity.

Consider `O=C(O)c1cc2cc(/N=N/c3ccccc3)ccc2oc1=O` [LSP9-4126, (E)-2-oxo-6-(phenyldiazenyl)-2H-chromene-3-carboxylic Acid], for which the “% inhibition of GLU vesicular transport at 20 μM” value (“% inhibition” below) (coumarin-derived compounds) worked out at 5%.

Regarding `COc1cc2oc(=O)c(C(=O)O)cc2cc1/N=N/c1ccc(-c2ccc(N)cc2)cc1` [LSP9-4089, (E)-6-((4′-aminobiphenyl-4-yl)diazenyl)-7-methoxy-2-oxo-2H-chromene-3-carboxylic Acid], the “% inhibition” value (coumarin-derived compounds) is on record as 35%.

`COc1cc(Br)ccc1/N=N/c1cc(OC)c2oc(=O)c(C(=O)O)cc2c1` [LSP9-3163]: where the note is “coumarin-derived compounds”, the “% inhibition” value was 9%.

A word on the EC50: it is the concentration giving half of the maximal effect. Take `COc1cc2oc(=O)c(C(=O)O)cc2cc1-n1cc(-c2ccccc2)nn1` [LSP17-1116, 7-methoxy-2-oxo-6-(4-phenyl-1H-1,2,3-triazol-1-yl)-2H-chromene-3-carboxylic Acid]: for the setting “coumarin-derived compounds”, the “% inhibition” value is 45% and the EC50 was 25 µM.

On to `O=C(O)c1cc2cc(C#Cc3ccccc3)ccc2oc1=O` [LSP17-1044, 2-oxo-6-(phenylethynyl)-2H-chromene-3-carboxylic Acid], for which the “% inhibition” value (coumarin-derived compounds) was 30%.

In the case of `O=C(O)c1cc2cc(/N=N/c3ccccc3)c(O)cc2oc1=O` [LSP9-4153, (E)-7-hydroxy-2-oxo-6-(phenyldiazenyl)-2H-chromene-3-carboxylic Acid], the “% inhibition” value (coumarin-derived compounds) is 12%.

Turning to `CCOC(=O)c1cc(C(=O)OCC)c2cc(-c3ccc(-c4ccc(-c5ccc6nc(C(=O)OCC)cc(C(=O)OCC)c6c5)cc4)cc3)ccc2n1` [LSP13-1153-YL153, Tetraethyl 6,6′-(biphenyl-4,4′-diyl)diquinoline-2,4-dicarboxylate], for the setting “quinoline-derived compounds”, the “% inhibition” value is 69% and the concentration for a half-maximal effect (EC50) came out at 12.3 µM.

Consider `O=C(O)c1cc2cc(-n3cc(-c4ccccc4)nn3)ccc2oc1=O` [LSP17-1100, 2-oxo-6-(4-phenyl-1H-1,2,3-triazol-1-yl)-2H-chromene-3-carboxylic Acid], for which, for the setting “coumarin-derived compounds”, the “% inhibition” value came out at 48% and a half-maximal response (EC50) required 23 µM.

Turning to `O=C(O)c1cc2cc(/N=N/c3ccc(Br)cc3)ccc2oc1=O` [LSP9-3160, (E)-6-((4-bromophenyl)diazenyl)-2-oxo-2H-chromene-3-carboxylic Acid], the “% inhibition” value (coumarin-derived compounds) is on record as 14%.

For the compound `CCN(CC)c1cc2oc(=O)c(C(=O)O)cc2cc1C#Cc1ccc(-c2ccc(N)cc2)cc1` [LSP17-1126, 6-((4′-amino-[1,1′-biphenyl]-4-yl)ethynyl)-7-(diethylamino)-2-oxo-2H-chromene-3-carboxylic Acid], the “potency in words (EC50)” value is “effective at a very low concentration”. For the same compound, for the setting “coumarin-derived compounds”, the “% inhibition” value worked out at 100% and the EC50 worked out at 5 µM.

Regarding `COc1cc2oc(=O)c(C(=O)O)cc2cc1C#Cc1ccc(-c2ccc(N)cc2)cc1` [LSP17-1127, 6-((4′-amino-[1,1′-biphenyl]-4-yl)ethynyl)-7-methoxy-2-oxo-2H-chromene-3-carboxylic Acid], the “% inhibition” value (coumarin-derived compounds) is 40%.

For `CCN(CC)c1cc2oc(=O)c(C(=O)O)cc2cc1-n1cc(-c2ccccc2)nn1` [LSP17-1153, 7-(diethylamino)-2-oxo-6-(4-phenyl-1H-1,2,3-triazol-1-yl)-2H-chromene-3-carboxylic Acid], for the setting “coumarin-derived compounds”, the “% inhibition” value is 62% and the midpoint of the response, the EC50, lay at 15 µM.

For `O=C(O)c1cc2cc(/C=C/c3ccccc3)ccc2oc1=O` [LSP16-2074, (E)-2-oxo-6-styryl-2H-chromene-3-carboxylic Acid], the “% inhibition” value (coumarin-derived compounds) was 30%.

As to `COc1cc(/N=N/c2ccc(Br)cc2)cc2cc(C(=O)O)c(=O)oc12` [LSP9-3162], where the note is “coumarin-derived compounds”, the “% inhibition” value is recorded as 42%.

As to `COc1cc2oc(=O)c(C(=O)O)cc2cc1/N=N/c1ccc(Br)cc1` [LSP9-3164], where the note is “coumarin-derived compounds”, the “% inhibition” value was found to be 40% and the 50% effective concentration (EC50) was found to be 30 µM.

In the case of `O=C(O)c1cc(C(=O)O)c2cc(/C=C/c3ccc(-c4ccc(/C=C/c5ccc6nc(C(=O)O)cc(C(=O)O)c6c5)cc4)cc3)ccc2n1` [LSP13-1173-YL173, 6,6′-2,2′-(biphenyl-4,4′-diyl)bis(ethene-2,1-diyl)diquinoline-2,4-dicarboxylic Acid], for the setting “quinoline-derived compounds”, the “% inhibition” value turned out to be 72% and the EC50 came to 15 µM.

Regarding `COc1cc(Br)ccc1/N=N/c1cc2cc(C(=O)O)c(=O)oc2cc1OC` [LSP9-4150], the “% inhibition” value (coumarin-derived compounds) is listed as 15%.

As to `O=C(O)c1cc(C(=O)O)c2cc(-c3ccc(-c4ccc(-c5ccc6nc(C(=O)O)cc(C(=O)O)c6c5)cc4)cc3)ccc2n1` [LSP13-1160-YL160, 6,6′-(Biphenyl-4,4′-diyl)diquinoline-2,4-dicarboxylic Acid], under “quinoline-derived compounds”, the “% inhibition” value is listed as 100% and a half-maximal effect (EC50) was put at 3.6 µM.

Consider `CCN(CC)c1cc2oc(=O)c(C(=O)O)cc2cc1-n1cc(-c2ccc(-c3ccc(N)cc3)cc2)nn1` [LSP17-1154, 6-(4-(4′-amino-[1,1′-biphenyl]-4-yl)-1H-1,2,3-triazol-1-yl)-7-(diethylamino)-2-oxo-2H-chromene-3-carboxylic Acid], for which, for the setting “coumarin-derived compounds”, the “% inhibition” value is 50% and a half-maximal effect (EC50) was put at 20 µM.

As for `COc1cc2oc(=O)c(C(=O)O)cc2cc1C#Cc1ccccc1` [LSP17-1046, 7-methoxy-2-oxo-6-(phenylethynyl)-2H-chromene-3-carboxylic Acid], for the setting “coumarin-derived compounds”, the “% inhibition” value was found to be 48% and it took 21 µM to reach a half-maximal effect (EC50).

As for `Nc1ccc(-c2ccc(C#Cc3ccc4oc(=O)c(C(=O)O)cc4c3)cc2)cc1` [LSP17-1125, 6-((4′-amino-[1,1′-biphenyl]-4-yl)ethynyl)-2-oxo-2H-chromene-3-carboxylic Acid], the “potency in words (EC50)” value is recorded as “effective at a very low concentration”. Moreover, under “coumarin-derived compounds”, the “% inhibition” value was determined as 100% and it took 5 µM to reach a half-maximal effect (EC50).

Turning to `COc1cc2oc(=O)c(C(=O)O)cc2cc1/N=N/c1ccccc1` [LSP9-4108, (E)-7-methoxy-2-oxo-6-(phenyldiazenyl)-2H-chromene-3-carboxylic Acid], where the note is “coumarin-derived compounds”, the “% inhibition” value is given as 30% and the EC50 was 50 µM.

Regarding `CCN(CC)c1cc2oc(=O)c(C(=O)O)cc2cc1C#Cc1ccccc1` [LSP17-1042, 7-(diethylamino)-2-oxo-6-(phenylethynyl)-2H-chromene-3-carboxylic Acid], the “% inhibition” value (coumarin-derived compounds) came out at 12%.

For the compound `O=C(O)c1cc2cc(C#Cc3ccccc3)c(O)cc2oc1=O` [LSP17-1177, 7-hydroxy-2-oxo-6-(phenylethynyl)-2H-chromene-3-carboxylic Acid], for the setting “coumarin-derived compounds”, the “% inhibition” value was found to be 20% and the 50% effective concentration (EC50) came to 267 µM.

On to `O=C(O)c1cc2cc(/N=N/c3ccc(Br)cc3)c(O)cc2oc1=O` [LSP9-5096, (E)-6-((4-bromophenyl)diazenyl)-7-hydroxy-2-oxo-2H-chromene-3-carboxylic Acid], for which the “% inhibition” value (coumarin-derived compounds) is 10%.

On to `COc1cc2oc(=O)c(C(=O)O)cc2cc1/C=C/c1ccccc1` [LSP16-2077, (E)-7-methoxy-2-oxo-6-styryl-2H-chromene-3-carboxylic acid], for which, where the note is “coumarin-derived compounds”, the “% inhibition” value is 30%.
